Assay results: article PMC5218480 (PLoS ONE, 2017)

Tested on: MV-4-11 cells
Experiment: Gene expression microarray analysis (Affymetrix PrimeView) and GSEA
Format: cell-based, human
Parameters: RFU PODN (11730768_x_at) / Fold change /veh PODN (11730768_x_at) / RFU LINC00158 (11744669_a_at) / Fold change /veh LINC00158 (11744669_a_at) / RFU DUSP10 (11751237_a_at) / Fold change /veh DUSP10 (11751237_a_at) / RFU ID3 (11757404_x_at) / Fold change /veh ID3 (11757404_x_at) / RFU PLEKHG5 (11737974_s_at) / Fold change /veh PLEKHG5 (11737974_s_at) / RFU LRRC4B (11730491_at) / Fold change /veh LRRC4B (11730491_at) / RFU GIMAP4 (11747438_a_at) / Fold change /veh GIMAP4 (11747438_a_at) / RFU KRT8 (11758183_x_at) / Fold change /veh KRT8 (11758183_x_at) / RFU CNN1 (11734310_a_at) / Fold change /veh CNN1 (11734310_a_at) / RFU VPS37D (11726825_at) / Fold change /veh VPS37D (11726825_at) / RFU C10orf10 (11716522_x_at) / Fold change /veh C10orf10 (11716522_x_at) / RFU KIR2DL2 /// KIR2DL4 /// KIR2DL5A /// KIR2DL5B /// KIR2DS1 /// KIR2DS2 /// KIR2DS3 /// KIR2DS4 /// KIR3DL3 /// KIR3DL3 /// KIR3DS1 (11738374_at) / Fold change /veh KIR2DL2 /// KIR2DL4 /// KIR2DL5A /// KIR2DL5B /// KIR2DS1 /// KIR2DS2 /// KIR2DS3 /// KIR2DS4 /// KIR3DL3 /// KIR3DL3 /// KIR3DS1 (11738374_at) / RFU C1QL1 (11718748_at) / Fold change /veh C1QL1 (11718748_at) / RFU TMPRSS4 (11747572_a_at) / Fold change /veh TMPRSS4 (11747572_a_at) / RFU HAMP (11756126_x_at) / Fold change /veh HAMP (11756126_x_at) / RFU RNFT2 (11725882_a_at) / Fold change /veh RNFT2 (11725882_a_at) / RFU NR4A2 (11747474_a_at) / Fold change /veh NR4A2 (11747474_a_at) / RFU ABCC12 (11746883_a_at) / Fold change /veh ABCC12 (11746883_a_at) / RFU TMEM136 (11760407_x_at) / Fold change /veh TMEM136 (11760407_x_at) / RFU CLDN22 /// WWC2 (11732394_at) / Fold change /veh CLDN22 /// WWC2 (11732394_at) / RFU HLA-DPB1 (11760878_x_at) / Fold change /veh HLA-DPB1 (11760878_x_at) / RFU SPINT1 (11716480_a_at) / Fold change /veh SPINT1 (11716480_a_at) / RFU GAP43 (11754022_s_at) / Fold change /veh GAP43 (11754022_s_at) / RFU A4GNT (11735810_at) / Fold change /veh A4GNT (11735810_at) / RFU PRB3 (11715151_x_at) / Fold change /veh PRB3 (11715151_x_at) / RFU TUBB4B (11761932_at) / Fold change /veh TUBB4B (11761932_at) / RFU CAPN14 (11732068_a_at) / Fold change /veh CAPN14 (11732068_a_at) / RFU TMCC2 (11721928_a_at) / Fold change /veh TMCC2 (11721928_a_at) / RFU IRGQ (11745062_a_at) / Fold change /veh IRGQ (11745062_a_at) / RFU FAM174B (11720279_a_at) / Fold change /veh FAM174B (11720279_a_at) / RFU TMPRSS4 (11748680_a_at) / Fold change /veh TMPRSS4 (11748680_a_at) / RFU FAM212B (11763350_a_at) / Fold change /veh FAM212B (11763350_a_at) / RFU PLEKHG5 (11743358_a_at) / Fold change /veh PLEKHG5 (11743358_a_at) / RFU ZSCAN30 (11745921_a_at) / Fold change /veh ZSCAN30 (11745921_a_at) / RFU CMKLR1 (11741424_a_at) / Fold change /veh CMKLR1 (11741424_a_at) / RFU LOC101060620 /// MAPK8IP1 (11723275_at) / Fold change /veh LOC101060620 /// MAPK8IP1 (11723275_at) / RFU SPTSSB (11747773_x_at) / Fold change /veh SPTSSB (11747773_x_at) / RFU PRSS12 (11739890_at) / Fold change /veh PRSS12 (11739890_at) / RFU BIN1 (11741810_x_at) / Fold change /veh BIN1 (11741810_x_at) / RFU WNT11 (11732464_a_at) / Fold change /veh WNT11 (11732464_a_at) / RFU C10orf10 (11716521_a_at) / Fold change /veh C10orf10 (11716521_a_at) / RFU C5orf56 (11738089_at) / Fold change /veh C5orf56 (11738089_at) / RFU CYB561 (11721691_x_at) / Fold change /veh CYB561 (11721691_x_at) / RFU ANKRD19P (11752326_a_at) / Fold change /veh ANKRD19P (11752326_a_at) / RFU OR2T12 /// OR2T33 /// OR2T8 (11738714_s_at) / Fold change /veh OR2T12 /// OR2T33 /// OR2T8 (11738714_s_at) / RFU VCAN (11748164_a_at) / Fold change /veh VCAN (11748164_a_at) / RFU JSRP1 (11732532_at) / Fold change /veh JSRP1 (11732532_at) / RFU KRTAP10-11 (11738290_x_at) / Fold change /veh KRTAP10-11 (11738290_x_at) / RFU MYO3A (11730013_a_at) / Fold change /veh MYO3A (11730013_a_at) / RFU EBF3 (11725865_a_at) / Fold change /veh EBF3 (11725865_a_at) / RFU CAMK2N1 (11719241_x_at) / Fold change /veh CAMK2N1 (11719241_x_at) / RFU C5orf56 (11738088_a_at) / Fold change /veh C5orf56 (11738088_a_at) / RFU OLFML3 (11715873_a_at) / Fold change /veh OLFML3 (11715873_a_at) / RFU LOC100653217 /// NTM (11731650_a_at) / Fold change /veh LOC100653217 /// NTM (11731650_a_at) / RFU MAPK11 (11762145_a_at) / Fold change /veh MAPK11 (11762145_a_at) / RFU FIZ1 (11724087_x_at) / Fold change /veh FIZ1 (11724087_x_at) / RFU OASL (11726364_x_at) / Fold change /veh OASL (11726364_x_at) / RFU SOX15 (11748057_x_at) / Fold change /veh SOX15 (11748057_x_at) / RFU CD79A (11719716_a_at) / Fold change /veh CD79A (11719716_a_at) / RFU HIST1H1D (11736915_at) / Fold change /veh HIST1H1D (11736915_at) / RFU CASKIN2 (11723855_a_at) / Fold change /veh CASKIN2 (11723855_a_at) / RFU LOC730098 (11760151_x_at) / Fold change /veh LOC730098 (11760151_x_at) / RFU OR4N2 (11742367_at) / Fold change /veh OR4N2 (11742367_at) / RFU PRRT2 (11749266_a_at) / Fold change /veh PRRT2 (11749266_a_at) / RFU SNX32 (11753110_a_at) / Fold change /veh SNX32 (11753110_a_at) / RFU CDHR5 (11726645_a_at) / Fold change /veh CDHR5 (11726645_a_at) / RFU RCAN1 (11760418_a_at) / Fold change /veh RCAN1 (11760418_a_at) / RFU FAM167A (11723789_a_at) / Fold change /veh FAM167A (11723789_a_at) / RFU FAM26E (11764081_at) / Fold change /veh FAM26E (11764081_at) / RFU ISYNA1 (11749810_s_at) / Fold change /veh ISYNA1 (11749810_s_at) / RFU ACY1 (11761880_at) / Fold change /veh ACY1 (11761880_at) / RFU 11764098_at / Fold change /veh 11764098_at / RFU SAMD14 (11745864_x_at) / Fold change /veh SAMD14 (11745864_x_at) / RFU NPB (11741838_a_at) / Fold change /veh NPB (11741838_a_at) / RFU TMPRSS6 (11731388_a_at) / Fold change /veh TMPRSS6 (11731388_a_at) / RFU KRTAP10-2 (11738614_at) / Fold change /veh KRTAP10-2 (11738614_at) / RFU ARHGAP8 /// PRR5-ARHGAP8 (11727945_x_at) / Fold change /veh ARHGAP8 /// PRR5-ARHGAP8 (11727945_x_at) / RFU KRTAP5-7 /// NADSYN1 (11734609_at) / Fold change /veh KRTAP5-7 /// NADSYN1 (11734609_at) / RFU RASL12 (11751679_a_at) / Fold change /veh RASL12 (11751679_a_at) / RFU CDKN2B (11736163_a_at) / Fold change /veh CDKN2B (11736163_a_at) / RFU PRF1 (11729649_at) / Fold change /veh PRF1 (11729649_at) / RFU, ZNF638 /// ZNF638-IT1 / Fold change vs veh, ZNF638 /// ZNF638-IT1 / RFU, PANK3 / Fold change vs veh, PANK3 / RFU, SH3YL1 / Fold change vs veh, SH3YL1 / RFU, ZEB2 / Fold change vs veh, ZEB2 / RFU, NRIP1 / Fold change vs veh, NRIP1 / RFU, PTTG1IP / Fold change vs veh, PTTG1IP / RFU, CAPN2 / Fold change vs veh, CAPN2 / RFU, MED14 / Fold change vs veh, MED14 / RFU, SNORA58 / Fold change vs veh, SNORA58 / RFU, C1orf63 / Fold change vs veh, C1orf63 / RFU, LRRFIP1 / Fold change vs veh, LRRFIP1 / RFU, NDUFAF7 / Fold change vs veh, NDUFAF7 / RFU, SLC12A2 / Fold change vs veh, SLC12A2 / RFU, IBTK / Fold change vs veh, IBTK / RFU, ESF1 / Fold change vs veh, ESF1 / Fold change vs veh, TMEM50B / RFU, TAOK1 / Fold change vs veh, TAOK1 / RFU, ACBD3 / Fold change vs veh, ACBD3 / RFU, TMA16 / Fold change vs veh, TMA16 / RFU, RWDD3 / Fold change vs veh, RWDD3 / RFU, BCAT1 / Fold change vs veh, BCAT1 / RFU, EDEM3 / Fold change vs veh, EDEM3 / RFU, TMEM33 / Fold change vs veh, TMEM33 / RFU, WDR75 / Fold change vs veh, WDR75 / RFU, AHCTF1 / Fold change vs veh, AHCTF1 / RFU, TFRC / Fold change vs veh, TFRC / RFU, ZDHHC17 / Fold change vs veh, ZDHHC17 / RFU, NOM1 / Fold change vs veh, NOM1 / RFU, ARL8B / Fold change vs veh, ARL8B / RFU, ZBTB11 / Fold change vs veh, ZBTB11 / RFU, TAMM41 / Fold change vs veh, TAMM41 / RFU, KIAA1704 /// LOC100996395 / Fold change vs veh, KIAA1704 /// LOC100996395 / RFU, ING1 / Fold change vs veh, ING1 / RFU, TRMT61B / Fold change vs veh, TRMT61B / RFU, FUBP3 / Fold change vs veh, FUBP3 / RFU, TP53 / Fold change vs veh, TP53 / RFU, TNKS2 / Fold change vs veh, TNKS2 / RFU, ZFP14 / Fold change vs veh, ZFP14 / RFU, ACTR2 / Fold change vs veh, ACTR2 / RFU, PPP3R1 / Fold change vs veh, PPP3R1 / RFU, PIK3R1 / Fold change vs veh, PIK3R1 / RFU, HNRNPA1 / Fold change vs veh, HNRNPA1 / RFU, RNF170 / Fold change vs veh, RNF170 / RFU, ZNF28 / Fold change vs veh, ZNF28 / RFU, RNGTT / Fold change vs veh, RNGTT / RFU, OGT / Fold change vs veh, OGT / RFU, BRD1 / Fold change vs veh, BRD1 / RFU, MARS / Fold change vs veh, MARS / RFU, ZNF655 / Fold change vs veh, ZNF655 / RFU, FAHD1 / Fold change vs veh, FAHD1 / RFU, BDP1 / Fold change vs veh, BDP1 / RFU, LRRCC1 / Fold change vs veh, LRRCC1 / RFU, ARID1A / Fold change vs veh, ARID1A / RFU, ZNF146 / Fold change vs veh, ZNF146 / RFU, ZNF330 / Fold change vs veh, ZNF330 / RFU, GPN3 / Fold change vs veh, GPN3 / RFU, C9orf123 / Fold change vs veh, C9orf123 / RFU, N4BP2L2 / Fold change vs veh, N4BP2L2 / RFU, ARFIP1 / Fold change vs veh, ARFIP1 / RFU, FAM179B / Fold change vs veh, FAM179B / RFU, BCL10 / Fold change vs veh, BCL10 / RFU, UHRF1BP1L / Fold change vs veh, UHRF1BP1L / RFU, BET1 / Fold change vs veh, BET1 / RFU, CNOT2 / Fold change vs veh, CNOT2 / RFU, ZNF268 / Fold change vs veh, ZNF268 / Fold change vs veh, ZNF507 / RFU, DGCR2 / Fold change vs veh, DGCR2 / RFU, WDSUB1 / Fold change vs veh, WDSUB1 / Fold change vs veh, HSP90B1 /// MIR3652 / RFU, ADSS / Fold change vs veh, ADSS / RFU, GK / Fold change vs veh, GK / RFU, ZNF148 / Fold change vs veh, ZNF148 / RFU, TAF9 / Fold change vs veh, TAF9 / RFU, SLC1A5 / Fold change vs veh, SLC1A5 / RFU, SLMO2 / Fold change vs veh, SLMO2 / RFU, ABCC4 / Fold change vs veh, ABCC4 / RFU, LOC101060439 /// RAP1B / Fold change vs veh, LOC101060439 /// RAP1B / RFU, RFX7 / Fold change vs veh, RFX7 / RFU, GTPBP10 / Fold change vs veh, GTPBP10 / RFU, CNEP1R1 / Fold change vs veh, CNEP1R1 / RFU, BIVM-ERCC5 /// ERCC5 / Fold change vs veh, BIVM-ERCC5 /// ERCC5 / RFU, ILF3 / Fold change vs veh, ILF3 / RFU 11762660_at / Fold change /veh 11762660_at / RFU VCAN (11757783_s_at) / Fold change /veh VCAN (11757783_s_at) / RFU DDX43 (11728927_at) / Fold change /veh DDX43 (11728927_at) / RFU KRT8 (11758188_x_at) / Fold change /veh KRT8 (11758188_x_at) / RFU NKD1 (11759106_at) / Fold change /veh NKD1 (11759106_at) / RFU SRD5A1 (11742802_a_at) / Fold change /veh SRD5A1 (11742802_a_at) / RFU TPSAB1 /// TPSB2 (11721975_s_at) / Fold change /veh TPSAB1 /// TPSB2 (11721975_s_at) / RFU GSTM3 (11746129_a_at) / Fold change /veh GSTM3 (11746129_a_at) / RFU IL23R (11737362_x_at) / Fold change /veh IL23R (11737362_x_at) / RFU TMEM51 (11727254_a_at) / Fold change /veh TMEM51 (11727254_a_at) / RFU PIWIL2 (11732686_x_at) / Fold change /veh PIWIL2 (11732686_x_at) / RFU ORM1 (11744905_x_at) / Fold change /veh ORM1 (11744905_x_at) / RFU CCDC152 (11743942_at) / Fold change /veh CCDC152 (11743942_at) / RFU ECM1 (11717891_a_at) / Fold change /veh ECM1 (11717891_a_at) / RFU IL23R (11748794_a_at) / Fold change /veh IL23R (11748794_a_at) / RFU TNFAIP8L3 (11732012_x_at) / Fold change /veh TNFAIP8L3 (11732012_x_at) / RFU MBOAT4 (11741988_at) / Fold change /veh MBOAT4 (11741988_at) / RFU 11764193_at / Fold change /veh 11764193_at / RFU TMEM53 (11763286_at) / Fold change /veh TMEM53 (11763286_at) / RFU MAGEB2 (11727129_at) / Fold change /veh MAGEB2 (11727129_at) / RFU TMEM200A (11744735_a_at) / Fold change /veh TMEM200A (11744735_a_at) / RFU CCDC152 (11751479_a_at) / Fold change /veh CCDC152 (11751479_a_at) / RFU FAM211A (11726209_a_at) / Fold change /veh FAM211A (11726209_a_at) / RFU RGS16 (11746705_a_at) / Fold change /veh RGS16 (11746705_a_at) / RFU VCAN (11755009_s_at) / Fold change /veh VCAN (11755009_s_at) / RFU RHOB (11743442_s_at) / Fold change /veh RHOB (11743442_s_at) / RFU RGS16 (11720943_a_at) / Fold change /veh RGS16 (11720943_a_at) / RFU RGS16 (11720944_at) / Fold change /veh RGS16 (11720944_at) / RFU, VPS4B / Fold change vs veh, VPS4B / RFU, CREB1 / Fold change vs veh, CREB1 / RFU, DNAJC13 / Fold change vs veh, DNAJC13 / RFU, GNAQ / Fold change vs veh, GNAQ / RFU, CDK5R1 / Fold change vs veh, CDK5R1 / RFU, ZRANB3 / Fold change vs veh, ZRANB3 / RFU, CUL4A / Fold change vs veh, CUL4A / RFU, CCNY / Fold change vs veh, CCNY / RFU, UFL1 / Fold change vs veh, UFL1 / RFU, COG3 / Fold change vs veh, COG3 / RFU, DIAPH2 / Fold change vs veh, DIAPH2 / RFU, SKA2 / Fold change vs veh, SKA2 / RFU, AFF3 / Fold change vs veh, AFF3 / RFU, LMF1 / Fold change vs veh, LMF1 / RFU, IPO11 / Fold change vs veh, IPO11 / RFU, DFFB / Fold change vs veh, DFFB / RFU, FOXP1 / Fold change vs veh, FOXP1 / RFU, CARD8 / Fold change vs veh, CARD8 / RFU, STRN3 / Fold change vs veh, STRN3 / RFU, ADK / Fold change vs veh, ADK / RFU, RASSF2 / Fold change vs veh, RASSF2 / RFU, WIPF1 / Fold change vs veh, WIPF1 / RFU, LARP1B / Fold change vs veh, LARP1B / RFU, RASA1 / Fold change vs veh, RASA1 / RFU, RB1 / Fold change vs veh, RB1 / RFU, PPFIA1 / Fold change vs veh, PPFIA1 / RFU, MAT2A / Fold change vs veh, MAT2A / RFU, CCT5 / Fold change vs veh, CCT5 / RFU, WDR92 / Fold change vs veh, WDR92 / RFU, CUX1 / Fold change vs veh, CUX1 / RFU, TTC7A / Fold change vs veh, TTC7A / RFU, TMEM135 / Fold change vs veh, TMEM135 / RFU, DEPTOR / Fold change vs veh, DEPTOR / RFU, CPM / Fold change vs veh, CPM / RFU, DNAJB6 / Fold change vs veh, DNAJB6 / RFU, CACNA2D3 / Fold change vs veh, CACNA2D3 / RFU, DTX4 / Fold change vs veh, DTX4 / RFU, TFCP2 / Fold change vs veh, TFCP2 / RFU, GMCL1 /// GMCL1P1 / Fold change vs veh, GMCL1 /// GMCL1P1 / RFU, AEBP2 / Fold change vs veh, AEBP2 / RFU, SNHG1 /// SNORD22 /// SNORD25 /// SNORD26 /// SNORD27 /// SNORD28 /// SNORD29 /// SNORD31 / Fold change vs veh, SNHG1 /// SNORD22 /// SNORD25 /// SNORD26 /// SNORD27 /// SNORD28 /// SNORD29 /// SNORD31 / Fold change (Aza/veh), C12orf56 (ProbeSet 11735607_a_at) / Fold change (ACY-1035/veh), C12orf56 (ProbeSet 11735607_a_at) / Fold change (Aza/veh), FGFR1OP (ProbeSet 11751329_s_at) / Fold change (ACY-1035/veh), FGFR1OP (ProbeSet 11751329_s_at) / Fold change (Aza/veh), VPS36 (ProbeSet 11739960_a_at) / Fold change (ACY-1035/veh), VPS36 (ProbeSet 11739960_a_at) / RFU SYPL1 (11715823_x_at) / Fold change /veh SYPL1 (11715823_x_at) / RFU IGFBP7 (11715501_s_at) / Fold change /veh IGFBP7 (11715501_s_at) / RFU REEP3 (11722064_at) / Fold change /veh REEP3 (11722064_at) / RFU IGLL1 (11728026_x_at) / Fold change /veh IGLL1 (11728026_x_at): dose or concentration left out as unconfirmed
Conditions: ProbeSet 11724526_at; LIST B

Nc1ccc(-c2cccs2)cc1NC(=O)c1ccc2c(c1)cc(C1CC1)n2CCN1CCOCC1 [ACY-1035]
RFU, FAHD1: 149.86 RFU
